Legend:
[1] = target: T1, human TLR7 (Homo sapiens, UniProt Q9NYK1); assay: Human TLR7 agonist activity assay (hTLR7 reporter, HEK-Blue TLR7 cells, SEAP); type: cell-based; details: HEK-Blue TLR7 cells with SEAP reporter, 18 h treatment; average where assay performed multiple times
T1 construct: host or cells: HEK-Blue TLR7 cells (engineered human embryonic kidney cells)
T1 sequence (Q9NYK1 27-1049): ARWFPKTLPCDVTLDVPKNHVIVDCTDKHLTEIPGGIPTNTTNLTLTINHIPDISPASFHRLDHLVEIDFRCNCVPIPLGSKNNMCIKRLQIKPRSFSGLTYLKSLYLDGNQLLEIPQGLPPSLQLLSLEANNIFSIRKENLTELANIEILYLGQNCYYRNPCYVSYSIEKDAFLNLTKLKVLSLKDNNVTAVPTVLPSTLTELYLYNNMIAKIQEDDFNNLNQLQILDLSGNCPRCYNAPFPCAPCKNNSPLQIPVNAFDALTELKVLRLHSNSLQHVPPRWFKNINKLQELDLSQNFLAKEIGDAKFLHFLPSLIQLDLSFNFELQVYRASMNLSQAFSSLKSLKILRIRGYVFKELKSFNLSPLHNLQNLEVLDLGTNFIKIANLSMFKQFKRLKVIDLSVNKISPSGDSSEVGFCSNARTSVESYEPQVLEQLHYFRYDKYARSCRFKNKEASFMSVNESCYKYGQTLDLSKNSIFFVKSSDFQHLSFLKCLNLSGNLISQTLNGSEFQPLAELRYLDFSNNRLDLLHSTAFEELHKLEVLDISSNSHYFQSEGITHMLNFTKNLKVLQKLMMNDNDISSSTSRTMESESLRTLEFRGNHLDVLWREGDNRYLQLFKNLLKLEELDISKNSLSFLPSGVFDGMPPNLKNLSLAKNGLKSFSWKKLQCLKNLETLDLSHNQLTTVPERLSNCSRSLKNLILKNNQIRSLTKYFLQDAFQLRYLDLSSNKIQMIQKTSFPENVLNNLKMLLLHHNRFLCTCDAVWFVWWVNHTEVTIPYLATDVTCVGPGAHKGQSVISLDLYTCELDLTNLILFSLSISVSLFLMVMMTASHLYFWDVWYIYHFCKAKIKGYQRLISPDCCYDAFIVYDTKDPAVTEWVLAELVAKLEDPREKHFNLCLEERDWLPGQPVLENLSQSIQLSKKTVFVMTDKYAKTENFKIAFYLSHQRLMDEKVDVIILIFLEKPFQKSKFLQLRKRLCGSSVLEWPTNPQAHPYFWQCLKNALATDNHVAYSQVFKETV
Method: This procedure describes a method for assaying human TLR7 (hTLR7) agonist activity of the compounds disclosed in this specification.
HEK-Blue™ TLR7 cells were added to each well of a 384-well tissue-culture plate (15,000 cells per well) and incubated 16-18 h at 37° C., 5% CO2. Compounds (100 nl) were dispensed into wells containing the HEK-Blue™ TLR cells and the treated cells were incubated at 37° C., 5% CO2. After 18 h treatment ten microliters of freshly-prepared Quanti-Blue™ reagent (Invivogen) was added to each well, incubated for 30 min (37° C., 5% CO2) and SEAP levels measured using an Envision plate reader (OD=620 nm). The half maximal effective concentration values (EC50; compound concentration which induced a response halfway between the assay baseline and maximum) were calculated.

[2] = tested on: CD69; assay: Induction of CD69 in human whole blood (hWB); type: cell-based; details: 17 hrs at 37 C, CD69 surface staining, 100% set to 1 uM resiquimod, average where performed multiple times
Method: The induction of Type I interferon (IFN) MX-1 genes and the B-cell activation marker CD69 are downstream events that occur upon activation of the TLR7 pathway. The following is a human whole blood assay that measures their induction in response to a TLR7 agonist.
Heparinized human whole blood was harvested from human subjects and treated with test TLR7 agonist compounds at 1 mM. The blood was diluted with RPMI 1640 media and Echo was used to predot 10 nL per well giving a final concentration of 1 uM (10 nL in 10 uL of blood). After mixing on a shaker for 30 sec, the plates were covered and placed in a 37° C. chamber for o/n=17 hrs. Fixing/lysis buffer was prepared (5×→1× in H2O, warm at 37° C.; Cat #BD 558049) and kept the perm buffer (on ice) for later use.
For surface markers staining (CD69): prepared surface Abs: 0.045 ul hCD14-FITC (ThermoFisher Cat #MHCD1401)+0.6 ul hCD19-ef450 (ThermoFisher Cat #48-0198-42)+1.5 ul hCD69-PE (cat #BD555531)+0.855 ul FACS buffer. Added 3 ul/well, spin1000 rpm for 1 min and mixed on shaker for 30 sec, put on ice for 30 mins. Stop stimulation after 30 min with 70 uL of prewarmed 1× fix/lysis buffer and use Feliex mate to resuspend (15 times, change tips for each plate) and incubate at 37C for 10 min.
Centrifuge at 2000 rpm for 5 min aspirate with HCS plate washer, mix on shaker for 30 sec and then wash with 70 uL in dPBS and pelleted 2× s (2000 rpm for 5 min) and 50 ul wash in FACS buffer pelleted 1×s(2000 rpm for 5 min). Mix on shaker for 30 sec. For Intracellular markers staining (MX-1): Add 50 ul of BD Perm buffer III and mix on shaker for 30 sec. Incubate on ice for 30 min (in the dark). Wash with 50 uL of FACS buffer 2× (spin @2300 rpm×5 min after perm) followed by mixing on shaker for 30 sec. Resuspended in 20 ul of FACS buffer containing MX1 antibody ( )(4812)-Alexa 647: Novus Biologicals #NBP2-43704AF647) 20 ul FACS bf+0.8 ul hlgG+0.04 ul MX-1. Spin 1000 rpm for 1 min, mix on shaker for 30se and the samples were incubated at RT in the dark for 45 min followed by washing 2× FACS buffer (spin @2300 rpm×5 min after perm). Resuspend 20 ul (35 uL total per well) of FACS buffer and cover with foil and place in 4° C. to read the following day. Plates were read on iQuePlus. The results were loaded into toolset and IC50 curves are generated in curve master. The y-axis 100% is set to 1 uM of resiquimod.

COc1cc(CN2C[C@@H]3C[C@H]2CN3)ccc1Cn1ncc2nc(N)nc(NCC3CC(C4CC4)C3)c21 (stereo partly drawn) [Compound 112, N7-[(3-cyclopropylcyclobutyl)-methyl]-1-[(4-{[(1S,4S)-2,5-diazabicyclo[2.2.1]heptan-2-yl]methyl}-2-methoxy-phenyl)methyl]-1H-pyrazolo[4,3-d]pyrimidine-5,7-diamine]
EC50 [1]: 30.5 nM | EC50 [2]: 151 nM

COc1cc(CN2C[C@H]3CNC[C@H]3C2)ccc1Cn1ncc2nc(N)nc(NCC3CC(C4CC4)C3)c21 (stereo partly drawn) [Compound 113, 1-[(4-{[(3aR,6aS)-octahydro-pyrrolo[3,4-c]pyrrol-2-yl]methyl}-2-methoxyphenyl)methyl]-N7-[(3-cyclopropylcyclobutyl)methyl]-1H-pyrazolo[4,3-d]pyrimidine-5,7-diamine]
EC50 [1]: 22.2 nM | EC50 [2]: 43.2 nM

CCCCNc1nc(N)nc2c(C)nn(Cc3ccc(C(=O)N4C[C@H]5C[C@@H]4CN5C)cc3OC)c12 [Compound 114, N7-butyl-1-({2-methoxy-4-[(1R,4R)-5-methyl-2,5-diazabicyclo-[2.2.1]heptane-2-carbonyl]phenyl}-methyl)-3-methyl-1H-pyrazolo[4,3-d]pyrimidine-5,7-diamine]
EC50 [1]: 120 nM | EC50 [2]: 15.4 nM

CCCCNc1nc(N)nc2c(C)nn(Cc3ccc(C(=O)N4C[C@H]5CN(C)C[C@H]5C4)cc3OC)c12 [Compound 115, 1-({4-[(3aR,6aS)-5-methyl-octahydropyrrolo[3,4-c]pyrrole-2-carbonyl]-2-methoxyphenyl}methyl)-N7-butyl-3-methyl-1H-pyrazolo[4,3-d]pyrimidine-5,7-diamine]
EC50 [1]: 79.8 nM | EC50 [2]: 10.9 nM

CCCCNc1nc(N)nc2cnn(Cc3ccc(C(=O)N4C[C@H]5CN(C)C[C@H]5C4)cc3OC(F)F)c12 [Compound 116, 1-({4-[(3aR,6aS)-5-methyl-octa-hydropyrrolo[3,4-c]pyrrole-2-carbonyl]-2-(difluoromethoxy)phenyl}-methyl)-N7-butyl-1H-pyrazolo[4,3-d]pyrimidine-5,7-diamine]
EC50 [1]: 172 nM | EC50 [2]: 14.2 nM

CCCCNc1nc(N)nc2cnn(Cc3ccc(CN4C[C@H]5CN(C)C[C@H]5C4)cc3OC(F)F)c12 [Compound 117, 1-[(4-{[(3aR,6aS)-5-methyl-octa-hdropyrrolo[3,4-c]pyrrol-2-yl]methyl}-2-(difluoromethoxy)phenyl)-methyl]-N7-butyl-1H-pyrazolo[4,3-d]pyrimidine-5,7-diamine]
EC50 [1]: 92.4 nM | EC50 [2]: 16.2 nM

CCCCNc1nc(N)nc2cnn(Cc3ccc(C(=O)N4C[C@H]5CN(C)C[C@H]5C4)cc3OC3CC3)c12 [Compound 118, 1-({4-[(3aR,6aS)-5-methyl-octa-hydropyrrolo[3,4-c]pyrrole-2-carbonyl]-2-cyclopropoxyphenyl}-methyl)-N7-butyl-1H-pyrazolo[4,3-d]pyrimidine-5,7-diamine]
EC50 [1]: 339 nM | EC50 [2]: 51.8 nM

CCC[C@@H](CCO)Nc1nc(N)nc2cnn(Cc3ccc(C(=O)N4C[C@H]5C[C@@H]4CN5C)cc3OC)c12 [Compound 119, (3S)-3-{[5-amino-1-({2-methoxy-4-[(1R,4R)-5-methyl-2,5-diazabicyclo [2.2.1]heptane-2-carbonyl]phenyl}methyl)-1H-pyrazolo[4,3-d]pyrimidin-7-yl]amino}hexan-1-ol]
EC50 [1]: 106 nM | EC50 [2]: 18.1 nM

CCC[C@@H](CCO)Nc1nc(N)nc2cnn(Cc3ccc(C(=O)N4C[C@H]5CNC[C@H]5C4)cc3OC)c12 [Compound 120]
EC50 [1]: 173 nM | EC50 [2]: 138 nM

CCC[C@@H](CCO)Nc1nc(N)nc2cnn(Cc3ccc(CN4C[C@H]5C[C@@H]4CN5C)cc3OC)c12 [Compound 121, (3S)-3-({5-amino-1-[(2-methoxy-4-{[(1R,4R)-5-methyl-2,5-diaza-bicyclo[2.2.1]heptan-2-yl]methyl}-phenyl)methyl]-1H-pyrazolo[4,3-d]pyrimidin-7-yl}amino)hexan-1-ol]
EC50 [1]: 22.1 nM | EC50 [2]: 1.3 nM

CCC[C@@H](CCO)Nc1nc(N)nc2cnn(Cc3ccc(CN4C[C@H]5CN(C)C[C@H]5C4)cc3OC)c12 [Compound 122, (3S)-3-({1-[(4-{[(3aR,6aS)-5-methyl-octahydropyrrolo[3,4-c]pyrrol-2-yl]methyl}-2-methoxyphenyl)methyl]-5-amino-1H-pyrazolo[4,3-d]pyrimidin-7-yl}amino)hexan-1-ol]
EC50 [1]: 7.2 nM | EC50 [2]: 0.7 nM

CCCCNc1nc(N)nc2cnn(Cc3ccc(C(=O)N4C[C@H]5CNC[C@H]5C4)cc3OC(F)F)c12 [Compound 123, 1-({4-[(3aR,6aS)-octahydro-pyrrolo[3,4-c]pyrrole-2-carbonyl]-2-(difluoromethoxy)phenyl}methyl)-N7-butyl-1H-pyrazolo[4,3-d]pyrimidine-5,7-diamine]
EC50 [1]: 2240 nM | EC50 [2]: 482 nM

COc1cc(CN2C[C@@H]3C[C@H]2CO3)ccc1Cn1ncc2nc(N)nc(NCc3cc(C)on3)c21 [Compound 127, 1-[(2-methoxy-4-{[(1S,4S)-2-oxa-5-azabicyclo[2.2.1]heptan-5-yl]methyl}phenyl)methyl]-N7-[(5-methyl-1,2-oxazol-3-yl)methyl]-1H-pyrazolo[4,3-d]pyrimidine-5,7-diamine]
EC50 [1]: 682 nM | EC50 [2]: 16.7 nM

COc1cc(CN2C[C@H]3C[C@@H]2CN3C)ccc1Cn1nc(C)c2nc(N)nc(NCc3cc(C)on3)c21 [Compound 128, 1-[(2-methoxy-4-{[(1R,4R)-5-methyl-2,5-diazabicyclo[2.2.1]-heptan-2-yl]methyl}phenyl)-methyl]-3-methyl-N7-[(5-methyl-1,2-oxazol-3-yl)methyl]-1H-pyra-zolo[4,3-d]pyrimidine-5,7-diamine]
EC50 [1]: 74.4 nM | EC50 [2]: 28 nM

COc1cc(CN2C[C@@H]3C[C@H]2CN3)ccc1Cn1ncc2nc(N)nc(NCc3noc(C)n3)c21 [Compound 129, 1-[(4-{[(1S,4S)-2,5-diaza-bicyclo[2.2.1]heptan-2-yl]methyl}-2-methoxyphenyl)methyl]-N7-[(5-methyl-1,2,4-oxadiazol-3-yl)methyl]-1H-pyrazolo[4,3-d]pyri-midine-5,7-diamine]
EC50 [1]: 323 nM | EC50 [2]: 804 nM
